# Source: patent publication US9297017B2, “Methods and compositions for targeted protein degradation” (University of Washington, priority 2010, dated 2016)
# Entries after “also recorded” stand apart in the source; their conditions may differ.
# Key:
# [1] = molecular target: T1, COI1-JAZ6 complex (Arabidopsis thaliana, UniProt O04197+Q9C9E3); assay: Competition binding with 100 nM 3H-coronatine; conditions: 100 nM 3H-COR, COI1-JAZ6 complex; read-out: Inhibition constant (Ki), competition with 3H-coronatine
# T1 construct: Full-length Arabidopsis thaliana COI1 and ASK1 were co-expressed; Full-length JAZ substrate proteins were expressed as 6×His-fusion proteins in Escherichia coli; GST (cleaved yes); 6xHis; made in house; host or cells: Hi5 insect cells (COI1/ASK1); Escherichia coli (JAZ6)
# T1 sequence (O04197 1-592): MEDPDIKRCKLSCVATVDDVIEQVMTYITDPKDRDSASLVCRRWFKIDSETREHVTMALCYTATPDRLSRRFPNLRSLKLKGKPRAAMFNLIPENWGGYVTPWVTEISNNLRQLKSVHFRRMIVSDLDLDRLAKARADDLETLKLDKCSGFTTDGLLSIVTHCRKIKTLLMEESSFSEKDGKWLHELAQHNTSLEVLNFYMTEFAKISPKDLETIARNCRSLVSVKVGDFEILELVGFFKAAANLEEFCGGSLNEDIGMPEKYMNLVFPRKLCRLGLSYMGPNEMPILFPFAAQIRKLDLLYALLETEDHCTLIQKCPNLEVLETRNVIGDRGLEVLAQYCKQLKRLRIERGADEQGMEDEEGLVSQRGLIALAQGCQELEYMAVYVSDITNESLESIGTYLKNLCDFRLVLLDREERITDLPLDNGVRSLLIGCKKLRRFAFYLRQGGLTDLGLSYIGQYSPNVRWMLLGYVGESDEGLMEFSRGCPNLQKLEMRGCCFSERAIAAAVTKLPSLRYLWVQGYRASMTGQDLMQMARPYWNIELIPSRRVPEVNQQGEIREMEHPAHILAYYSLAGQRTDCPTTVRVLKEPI
# T1 sequence (Q39255 1-160 partner): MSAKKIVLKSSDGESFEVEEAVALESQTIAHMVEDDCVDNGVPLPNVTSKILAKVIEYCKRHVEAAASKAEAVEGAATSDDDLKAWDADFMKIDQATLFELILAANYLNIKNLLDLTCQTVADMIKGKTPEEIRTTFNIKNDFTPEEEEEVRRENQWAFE
# T1 sequence (Q9C9E3 1-269): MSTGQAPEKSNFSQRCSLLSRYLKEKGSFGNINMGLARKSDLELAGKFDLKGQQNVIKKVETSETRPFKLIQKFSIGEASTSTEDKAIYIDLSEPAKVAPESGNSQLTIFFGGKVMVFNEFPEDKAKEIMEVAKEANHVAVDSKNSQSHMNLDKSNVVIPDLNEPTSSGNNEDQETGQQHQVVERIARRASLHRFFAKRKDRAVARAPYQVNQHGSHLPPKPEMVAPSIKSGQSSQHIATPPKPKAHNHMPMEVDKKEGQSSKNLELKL
# From the text: (^3H)-labeled coronatine was synthesized by Amersham. Full-length Arabidopsis thaliana COI1 and ASK1 were co-expressed as a glutathione S-transferase (GST) fusion protein and an untagged protein, respectively, in Hi5 suspension insect cells. The COI1/ASK1 complex was isolated from the soluble cell lysate by glutathione affinity chromatography. After on-column tag cleavage by tobacco etch virus protease, the complex was further purified by anion exchange and gel filtration chromatography and concentrated by ultrafiltration to 12-18 mg ml^−1. Full-length JAZ substrate proteins were expressed as 6×His-fusion proteins in Escherichia coli and purified on Ni-NTA resin with subsequent dialysis into 20 mM Tris-HCl, pH 8.0, 200 mM NaCl, and 10% glycerol.
# Radioligand binding was assayed on purified proteins, with 2 mg COI1/ASK1 complex and JAZ proteins at a 1:3 molar ratio. Reactions were prepared in […] final volume and in a binding buffer containing 20 mM Tris-HCl 200 mM NaCl, and 10% glycerol. Saturation binding experiments were conducted with serial dilutions of 3H-coronatine in binding buffer. Nonspecific binding was determined in the presence of […] coronatine. Competition binding experiments were conducted with serial dilutions of JA-Ile in the presence of 100 nM ^3H coronatine with nonspecific binding determined in the presence of […] coronatine. Total binding was determined in the presence of vehicle only. Two-point binding experiments were performed in the presence of 100 nM or 300 nM ^3H-coronatine with nonspecific binding determined in the presence of […] coronatine. Following incubation with mixing at 4° C., all samples were collected with a cell harvester (Brandel, Gaithersburg, Md.) on polyethyleneimine (Sigma)-treated filters. […] Saturation binding experiments were analyzed by nonlinear regression, competition binding experiments by nonlinear regression with Ki calculation as described previously (Cheng 1973), and concentration-response data by sigmoidal dose-response curve fitting, all using GraphPad Prism version 4.00 for MacOSX.
# [2] = molecular target: T2, COI1/JAZ1 co-receptor (Arabidopsis thaliana, UniProt O04197+Q9LMA8); assay: Ligand-binding based reconstitution assay (inositol phosphate rescue) with dialyzed COI1/ASK1 and JAZ1; conditions: 100 nM 3H-coronatine, read-out: EC50, rescue of 3H-coronatine binding to dialyzed COI1/ASK1 in the presence of JAZ1
# T2 construct: Full-length Arabidopsis thaliana COI1 and ASK1 were co-expressed; Full-length JAZ substrate proteins were expressed as 6×His-fusion proteins in Escherichia coli; GST (cleaved yes); 6xHis; made in house; host or cells: Hi5 insect cells (COI1/ASK1); Escherichia coli (JAZ1)
# T2 sequence (O04197 1-592): T1 sequence (O04197 1-592)
# T2 sequence (Q39255 1-160 partner): T1 sequence (Q39255 1-160 partner)
# T2 sequence (Q9LMA8 1-253): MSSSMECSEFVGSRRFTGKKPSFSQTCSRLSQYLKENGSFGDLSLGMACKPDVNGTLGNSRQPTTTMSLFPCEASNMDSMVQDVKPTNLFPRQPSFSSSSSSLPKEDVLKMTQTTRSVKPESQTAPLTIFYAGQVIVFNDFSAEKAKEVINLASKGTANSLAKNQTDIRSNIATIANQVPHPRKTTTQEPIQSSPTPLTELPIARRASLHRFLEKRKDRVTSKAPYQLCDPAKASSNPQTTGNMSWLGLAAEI
# [3] = molecular target: T2, COI1/JAZ1 co-receptor; assay: as above; conditions: for Effect of inositol phosphate on activity of the COI1/JAZ1 co-receptor (coronatine binding): dialyzed COI1, JAZ1, 1 μM inositol phosphate
# Method: (§1) Radioligand binding was assayed on purified proteins, with 2 mg COI1/ASK1 complex and JAZ proteins at a 1:3 molar ratio. Reactions were prepared in […] final volume and in a binding buffer containing 20 mM Tris-HCl 200 mM NaCl, and 10% glycerol. Saturation binding experiments were conducted with serial dilutions of 3H-coronatine in binding buffer. Nonspecific binding was determined in the presence of […] coronatine. Competition binding experiments were conducted with serial dilutions of JA-Ile in the presence of 100 nM ^3H coronatine with nonspecific binding determined in the presence of […] coronatine. Total binding was determined in the presence of vehicle only. Two-point binding experiments were performed in the presence of 100 nM or 300 nM ^3H-coronatine with nonspecific binding determined in the presence of […] coronatine. Following incubation with mixing at 4° C., all samples were collected with a cell harvester (Brandel, Gaithersburg, Md.) on polyethyleneimine (Sigma)-treated filters. Samples were incubated in liquid scintillation fluid for >1 hour before counting with a Packard Tri-Carb 2200 CA liquid scintillation analyzer (Packard Instrument Co.). Saturation binding experiments were analyzed by nonlinear regression, competition binding experiments by nonlinear regression with Ki calculation as described previously (Cheng 1973), and concentration-response data by sigmoidal dose-response curve fitting, all using GraphPad Prism version 4.00 for MacOSX.
# To assess the functional role of Ins(1,2,4,5,6)P5 in the COI1/JAZ1 co-receptor, a protocol was developed for stripping the co-purified InsP5 from COI1 without denaturing the protein. Briefly, proteins were mixed with 10% glycerol and incubated in 2 M ammonium phosphate, 100 mM Bis-Tris propane, pH 7.0, 200 mM NaCl, and 10% glycerol at 4° C. for >24 hours with a minimum of 3× buffer changes at 100× sample volume. Samples were then transferred to 20 mM Tris-HCl, pH 8.0, 200 mM NaCl, and 10% glycerol at 4° C. for >24 hours with a minimum of three buffer changes at 100× sample volume. Inositol phosphate rescue experiments were conducted according to the radioligand binding assays described above in the presence of 300 nM ^3H-coronatine with nonspecific binding determined in the presence of 300 μM coronatine.
# The resulting COI1/ASK1 complex was tested in a ligand-binding based reconstitution assay. […] From this reconstitution result, it was concluded that Ins(1,2,4,5,6)P5 binding is crucial for the jasmonate coreceptor to perceive the hormone with high sensitivity.
# [4] = molecular target: T3, COI1 (Arabidopsis thaliana, UniProt O04197); assay: Ligand binding assay with synthetic JAZ peptides replacing recombinant JAZ1 (coronatine binding to COI1/ASK1); conditions: 300 nM coronatine
# T3 construct: Full-length Arabidopsis thaliana COI1 and ASK1 were co-expressed; GST (cleaved yes); made in house; host or cells: Hi5 insect cells (COI1/ASK1); JAZ peptides synthetic
# T3 sequence (O04197 1-592): T1 sequence (O04197 1-592)
# T3 sequence (Q39255 1-160 partner): T1 sequence (Q39255 1-160 partner)
# Method: as §1
# Previous studies have shown that the highly conserved PY sequence at the C-terminal end of the Jas motif plays a role in JAZ localization and stability in vivo, but that the sequence was not necessary for ligand-dependent COI1-JAZ interaction. This was confirmed by an experiment showing that truncation of the PY motif in JAZ1 had little effect on in vitro ligand binding activity (FIG. 3). […]
# Various derivatives of the JAZ1 degron sequence, as well as derivatives of the JAZ6 and JAZ7 degron sequences, were analyzed for their ability to bind COI1 with high affinity in the presence of coronatine.
Compound,Binding of peptide to COI1 in the presence of coronatine [4],Effect of inositol phosphate on activity of the COI1/JAZ1 co-receptor (coronatine binding) [3],further results
"CCC=CC[C@H]1C(=O)CC[C@@H]1CC(=O)N[C@H](C(=O)O)[C@@H](C)CC [(3R,7R)-JA-Ile]",–,–,Ki [1]: 18000 ± 19000 nM
"CC/C=C\C[C@@H]1C(=O)CC[C@@H]1CC(=O)N[C@H](C(=O)O)[C@@H](C)CC [(3R,7S)-JA-Ile, (3R,7S)-jasmonyl-L-isoleucine]",–,–,Ki [1]: 1800 ± 600 nM
"O=P(O)(O)OC1C(O)C(OP(=O)(O)O)C(OP(=O)(O)O)C(OP(=O)(O)O)C1OP(=O)(O)O (stereo not drawn) [Ins(1,2,4,5,6)P5, inositol-1,2,4,5,6-pentakisphosphate]",–,rescued the interaction in a dose-dependent manner,"EC50 [2]: 27 nM; Effect of inositol phosphate on activity of the COI1/JAZ1 co-receptor (coronatine binding) ([3]; listed as InsP5): rescues binding; Effect of exogenous inositol phosphate on untreated COI1/JAZ1 co-receptor activity ([3]; untreated (not dialyzed) COI1, JAZ1, 1 μM): did not significantly change its activity"
"O=P(O)(O)OC1C(OP(=O)(O)O)C(OP(=O)(O)O)C(OP(=O)(O)O)C(OP(=O)(O)O)C1OP(=O)(O)O (stereo not drawn) [InsP6, inositol hexakisphosphate]",–,not favorable for activity; also recorded: significantly less efficacious,–
"O=P(O)(O)O[C@H]1[C@H](OP(=O)(O)O)[C@@H](OP(=O)(O)O)[C@@H](O)[C@@H](O)[C@@H]1OP(=O)(O)O [inositol-1,4,5,6-tetrakisphosphate]",–,supports the activity,–
"O=P(O)(O)O[C@@H]1[C@H](O)[C@H](O)[C@@H](OP(=O)(O)O)[C@H](OP(=O)(O)O)[C@H]1O [inositol-1,4,5-trisphosphate]",–,does not,–
JAZ1 +4 extension: LPIARRASLHRFLEKRKDRV (listed as Arabidopsis thaliana),much higher affinity,–,–

# The next lines start with results.
Binding of peptide to COI1 in the presence of coronatine [4],Compound,Effect of inositol phosphate on activity of the COI1/JAZ1 co-receptor (coronatine binding) [3],further results
did not bind to COI1 with high affinity,JAZ1 degron: RRASLHRFLEKRKDRVTSKAPY (R205-Y226 of JAZ1) (listed as Arabidopsis thaliana),–,–
significant binding,JAZ1-extension +5+PY: ELPIARRASLHRFLEKRKDRVTSKAPY (listed as Arabidopsis thaliana),–,–
